The assay concerns the target T1, HDAC6 (Homo sapiens, UniProt Q9UBN7).
T1 sequence (Q9UBN7 1-1215): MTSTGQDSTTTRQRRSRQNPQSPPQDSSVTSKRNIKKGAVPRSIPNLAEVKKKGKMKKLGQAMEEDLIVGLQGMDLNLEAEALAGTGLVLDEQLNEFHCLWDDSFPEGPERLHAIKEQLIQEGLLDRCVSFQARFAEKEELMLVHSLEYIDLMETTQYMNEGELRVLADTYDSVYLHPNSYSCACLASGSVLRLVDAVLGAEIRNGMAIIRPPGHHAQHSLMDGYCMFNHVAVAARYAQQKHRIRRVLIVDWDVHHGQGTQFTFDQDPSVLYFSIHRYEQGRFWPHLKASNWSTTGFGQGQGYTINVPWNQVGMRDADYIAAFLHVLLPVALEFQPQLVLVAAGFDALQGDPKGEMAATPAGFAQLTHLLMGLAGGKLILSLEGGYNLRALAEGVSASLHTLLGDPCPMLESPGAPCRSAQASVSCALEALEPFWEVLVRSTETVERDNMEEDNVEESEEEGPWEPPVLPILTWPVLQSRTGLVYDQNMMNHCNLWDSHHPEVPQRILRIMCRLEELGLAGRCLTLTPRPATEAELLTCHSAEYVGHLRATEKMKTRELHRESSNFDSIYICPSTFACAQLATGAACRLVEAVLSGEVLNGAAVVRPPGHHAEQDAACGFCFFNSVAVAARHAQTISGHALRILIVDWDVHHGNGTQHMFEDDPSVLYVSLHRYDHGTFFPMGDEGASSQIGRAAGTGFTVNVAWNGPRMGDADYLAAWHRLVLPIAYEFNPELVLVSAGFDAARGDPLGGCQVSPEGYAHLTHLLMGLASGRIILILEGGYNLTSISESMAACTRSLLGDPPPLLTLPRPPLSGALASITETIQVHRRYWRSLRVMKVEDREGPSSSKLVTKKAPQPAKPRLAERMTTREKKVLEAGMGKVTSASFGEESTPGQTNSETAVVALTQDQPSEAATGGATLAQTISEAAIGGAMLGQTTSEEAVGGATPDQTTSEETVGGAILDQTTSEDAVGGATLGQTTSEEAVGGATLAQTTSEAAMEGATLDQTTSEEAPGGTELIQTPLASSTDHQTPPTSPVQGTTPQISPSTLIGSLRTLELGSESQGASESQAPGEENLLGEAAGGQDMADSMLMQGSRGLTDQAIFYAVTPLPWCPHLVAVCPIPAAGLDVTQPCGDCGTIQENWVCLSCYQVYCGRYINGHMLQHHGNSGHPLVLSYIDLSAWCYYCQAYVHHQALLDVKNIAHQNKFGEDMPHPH
Nature of the assay: Homogeneous ZMAL-based fluorescence assay for HDAC6. In kind it is biochemical. As for the experimental part:
The inhibition of HDAC1 and 6 by the S1th and PR-619 was determined via the ZMAL-assay according to the same general procedure described for sirtuins (2.2.1). 5 μL substrate (10.5 μM final assay concentration) were mixed with 3 μL of inhibitor in DMSO or DMSO and 10 μL of HDAC solution (concentration adjusted to 15–30% conversion) and filled up to 60 μL with assay buffer (50 mM Tris, 137 mM NaCl, 1 mM MgCl2, 2,7 mM KCl, 1 mg/ml BSA, pH = 8.0). The mixture was incubated at 37°C and 140 rpm for 1.5 h. For the stop solution Trichostatin A (3.3 μM) was used instead of nicotinamide. Fluorescence intensity was measured as described above. An enzyme free blank control and an AMC containing 100% control were performed as well and inhibition was calculated in % in relation to a DMSO control.

A word on the inhibition: it is how much of the control response was suppressed. Read a low inhibition as little suppression.

On to `COc1ccc(SC#N)cc1OCC(=O)N(CCC#N)CCC#N` [S1th 12], for which the inhibition at 100 µM was 36%. As for `N#CSc1cccc(NC(=O)[C@H]2CC=CC[C@H]2C(=O)O)c1` [S1th 10], the “% inhibition @ 100 μM HDAC6” value worked out at 29% and the inhibition at 100 µM amounted to 19%.

The molecule `CCCCNC(=O)Nc1cccc(SC#N)c1` [S1th 11] registered an inhibition at 100 µM of less than 10%.

On to `N#CSc1cc(SC#N)c(N)nc1N` [PR-619, reference compound], for which the “residual activity HDAC6” value was ~ 50% and 100 µM produced 49% inhibition. In the case of `N#CSc1cccc(NS(=O)(=O)c2ccc3c(c2)OCCO3)c1` [S1th 13], the “% inhibition @ 100 μM HDAC6” value worked out at 19% and the inhibition at 100 µM was determined as 29%.

Source of the values: PMC7203344, “Sirtuin 1 Inhibiting Thiocyanates (S1th)—A New Class of Isotype Selective Inhibitors of NAD^+ Dependent Lysine Deacetylases” (Frontiers in Oncology, 2020).
